Columns and labels:
Format in all cases: cell-based
[1] = test system: HCC827 cells; assay: Resazurin conversion cell viability/proliferation assay in HCC827 cells; conditions: for overall effects on cell viability and mitochondrial function (summary): cultured cells, relatively high dosage
Protocol: (§1) Non-small cell lung cancer cells, HCC827 (ATCC) were cultured in RPMI-1640 Glutamax medium (Sigma-Aldrich St. Louis, Mo., USA), under conventional culture conditions. Media was supplemented with 10% Fetal Bovine Serum (FBS), 1% glutamine and 1% streptomycin/penicillin (Sigma-Aldrich). HeLaNRF1/c4 reporter cells were cultured in Dulbecco's Modified Eagle's Medium (DMEM) supplemented with 10% FBS, 2 mM L-Glutamine, 100 u/ml penicillin/streptomycin (Sigma-Aldrich,). Incubation was done at 37° C. in 5% CO2.
(§2) Cell viability/proliferation was determined by the resazurin conversion assay. A total of 4000 cells were seeded in each of the 96-well plates in 100 μl of medium. After 3 hours of incubation, 100 μl of fresh medium with respective concentration of the desired compound or controls were added. Resazurin solution (Sigma-Aldrich) was added (10%, v/v in PBS) after 1 or 3 day treatment, followed by 3 hour incubation at 37° C. and 5% CO2. Resazurin fluorescence (excitation, 540 nm; emission, 590 nm) was measured and measurements were corrected for background signals. […] Relative viability was calculated from percent fluorescence relative to DMSO-treated control wells.

[2] = test system: HeLaNRF1/c4 reporter cells; assay: Gene expression (qPCR) in HeLaNRF1/c4 reporter cells; conditions: long-term treatment
Protocol: The HeLaNRF1/c4 reporter cells were employed to investigate effects of the modified fatty acids on NRF1-regulated mitochondrial biogenesis. The cells (250,000) were seeded in T75 flasks and incubated for 3 hours to allow attachment. The compounds were dissolved in DMSO and diluted in culture medium to provide the final concentration. DMSO at a concentration equivalent to the highest compound concentration was added to control cultures. Resveratrol and AICAR were used as positive controls. Resveratrol has not previously been tested in this reporter model, but we found it relevant to include it for purposes of experimental and mechanistic comparisons. After 3 days of treatment the media was replaced with fresh media containing the corresponding compound. On day 5, the cells were harvested and the cultures split into three fractions: One fraction was used for detection of mitoGFP expression by flow cytometry, to assess effects on NRF-1 regulated mitochondrial biogenesis. Flow cytometry analysis was performed as previously described. Another fraction was used for extraction of RNA and subsequent gene expression analysis using quantitative PCR (see below). The last fraction was employed to investigate effects on mitochondrial respiratory function by extracellular flux analysis (described above). The experiment was replicated three times.
Total RNA was extracted from harvested cells (RNAeasy kit Qiagen, Hilden, Germany). The RNA content was quantified on Nanodrop 1000 Spectrophotometer (Thermo Scientific). From 1 μg total RNA, cDNA was synthesized using High-Capacity Reverse Transcription Kit (Applied Biosystems, Carlsbad, Calif., US). Gene quantification was done using TaqMan probes for gene expression assays (Applied Biosystems). Probes used were: PGC1α (PPARG coactivator 1α), Hs00173304_m1; HIF1α (hypoxia inducible factor 1α), Hs00153153_m1; PDK1 (pyruvate dehydrogenase kinase 1), Hs01561847_m1; PDK4, (pyruvate dehydrogenase kinase 4), Hs01037712_m1; SIRT4 (sirtuin 4) Hs01015516_g1; ACOX1 (acyl-CoA oxidase 1) Hs01074241_m1; as reference genes, we used; Eukaryotic 18S rRNA Hs99999901_s1; actin beta Hs99999903_m1. Fold change was calculated as geometric mean of ΔΔCt of the two reference genes.

[3] = test system: HeLaNRF1/c4 reporter cells; assay: Resazurin conversion assay in HeLaNRF1/c4 reporter cells; conditions: test compounds 30 μM and 60 μM, long treatment
Protocol: as §1, §2
In order to investigate if some of the compounds induce metabolic adaptations involving mitochondrial biogenesis, we employed the HeLaNRF1/c4 reporter cells in which activation of the transcription factor NRF1 triggers expression of GFP. Since adaptations of mitochondrial biogenesis are known to require some days to develop, we used a relatively low dosage (30 μM and 60 μM) of the compounds, to allow longer treatment period compared to the previous short term experiments.

[4] = test system: HCC827 cells; assay: Mitochondria respiration assay (OCR, extracellular flux) in HCC827 cells
Protocol: as §1
Mitochondria function was analyzed by measuring oxygen consumption rate (OCR) by extracellular flux analysis in a Seahorse XFe96 instrument (Agilent Seahorse XF Technologies). The measurements were performed in DADA basic media without phenol red, supplemented with L-glutamine (2 mM), pyruvate (2 mM), and sodium chloride, NaCl (32 mM) (Sigma-Aldrich). Respiratory rates were measured following sequential additions of glucose (10 mM), oligomycin, carbonyl cyanide m-chlorophenyl hydrazine (CCCP) and a mixture of rotenone (1 μM) and antimycin A (1 μM). Before carrying out the measurements for each cell model, optimizations were done for; cell number, CCCP, and oligomycin concentrations. For the HCC 827 cell model optimal conditions were; 30,000 cells/well, 0.5 μM CCCP, and 3 μM Oligomycin; and in HeLaNRF1/c4 reporter cell model; 20,000 cells/well, 1 μM CCCP and 3 μM Oligomycin. The OCR measured initially (before any additions) represented the rate ‘basal respiration.’ The addition of ATP synthase inhibitor oligomycin provided oxygen consumption independent of ATP production (‘leak activity’). Maximal respiration (also referred to as ‘respiratory capacity’) was measured upon addition of the uncoupler CCCP. […] After the extracellular flux analysis the analysis plates were washed with Phosphate Buffered Saline (PBS) and frozen at −80° C. The BCA assay (Pierce BCA protein assay kit, Thermo Fisher Scientific, Waltham, Mass. USA) was employed to measure the protein content in the wells. To evaluate the effects of the different treatments, the respiratory rates from compound-treated wells were normalized to protein content, and calculated as percentage of the average respiratory rate of the DMSO-treated control wells. All treatments were performed with 6-8 replicate wells.

Structure (SMILES) | overall effects on cell viability and mitochondrial function (summary) [1] | PDK4 expression [2] | resazurin conversion [3] | viability (resazurin conversion) ([1]; HCC827 cells, 200 μM) | uncoupled respiratory capacity after CCCP [4] | leak respiration after oligomycin ([4]; 100 μM TTA, 200 μM 2-triple TTA, 30 μM TDG) | basal respiratory rate (OCR) ([4]; compared to control)
CCCC(SCC)C(=O)O (stereo not drawn) [2-(ethylthio) pentanoic acid, 2-(ethylthio)pentanoic acid] | only minor effects |  |  |  |  |  | 
C#CCCCCCCCCCCCNCC(=O)O [2-triple TDG, N-(tridec-12-yn-yl) glycine] | harmful effects were significantly reduced | moderate effect | no significant effect |  |  |  | 
CC#CCCCCCCCCCCCSCC(=O)O [2-triple TTA, 2-(Tetradec-12-yn-1-ylthio)acetic acid] | harmful effects were significantly reduced | moderate effect | little or no effect | moderate antiproliferative effect | stronger dose-dependent effect | significantly increased | 
Oc1ccc(C=Cc2cc(O)cc(O)c2)cc1 [resveratrol, Resveratrol, reference compound] |  |  | moderate reduction |  |  |  | little or no effect
